Test: xn = mol fraction of the nth substance listed
Conditions: Liquid, pressure decay method

## CCCCCC[n+]1ccn(C)c1.O=S(=O)([N-]S(=O)(=O)C(F)(F)F)C(F)(F)F + O=C=O
283.2 K, 91.5 kPa, x2 = 0
  binary diffusion coefficient: 2.64e-10 m2/s
298.2 K, 99.7 kPa, x2 = 0
  binary diffusion coefficient: 3.89e-10 m2/s
313.2 K, 103.4 kPa, x2 = 0
  binary diffusion coefficient: 5.97e-10 m2/s

## CC(F)(F)F [1,1,1-trifluoroethane] + CCCCCC[n+]1ccn(C)c1.O=S(=O)([N-]S(=O)(=O)C(F)(F)F)C(F)(F)F
303.2 K, 104 kPa, x1 = 0
  binary diffusion coefficient: 1.84e-10 m2/s
313.2 K, 98.7 kPa, x1 = 0
  binary diffusion coefficient: 2.4e-10 m2/s
323.2 K, 99.5 kPa, x1 = 0
  binary diffusion coefficient: 3.35e-10 m2/s
333.2 K, 102.6 kPa, x1 = 0
  binary diffusion coefficient: 3.97e-10 m2/s
343.2 K, 99.7 kPa, x1 = 0
  binary diffusion coefficient: 5.1e-10 m2/s

## CC(F)(F)F [1,1,1-trifluoroethane] + CCCCCCn1cc[n+](C)c1.F[B-](F)(F)F
303.2 K, 149.1 kPa, x1 = 0
  binary diffusion coefficient: 7.7e-11 m2/s
313.2 K, 159.2 kPa, x1 = 0
  binary diffusion coefficient: 1.15e-10 m2/s
323.2 K, 173.5 kPa, x1 = 0
  binary diffusion coefficient: 1.89e-10 m2/s
333.2 K, 187.6 kPa, x1 = 0
  binary diffusion coefficient: 2.62e-10 m2/s
343.2 K, 189 kPa, x1 = 0
  binary diffusion coefficient: 3.39e-10 m2/s

## CC(F)F [1,1-difluoroethane] + CCCCCC[n+]1ccn(C)c1.O=S(=O)([N-]S(=O)(=O)C(F)(F)F)C(F)(F)F
303.2 K, 87.7 kPa, x1 = 0
  binary diffusion coefficient: 9.9e-11 m2/s
313.2 K, 89.1 kPa, x1 = 0
  binary diffusion coefficient: 1.41e-10 m2/s
323.2 K, 92.5 kPa, x1 = 0
  binary diffusion coefficient: 2.02e-10 m2/s
333.2 K, 96.4 kPa, x1 = 0
  binary diffusion coefficient: 2.61e-10 m2/s
343.2 K, 93.8 kPa, x1 = 0
  binary diffusion coefficient: 3.16e-10 m2/s

## CC(F)F [1,1-difluoroethane] + CCCCCCn1cc[n+](C)c1.F[B-](F)(F)F
303.2 K, 95.1 kPa, x1 = 0
  binary diffusion coefficient: 7.4e-11 m2/s
313.2 K, 101.6 kPa, x1 = 0
  binary diffusion coefficient: 1.07e-10 m2/s
323.2 K, 102 kPa, x1 = 0
  binary diffusion coefficient: 1.59e-10 m2/s
333.2 K, 97.8 kPa, x1 = 0
  binary diffusion coefficient: 2.07e-10 m2/s
343.2 K, 98.5 kPa, x1 = 0
  binary diffusion coefficient: 2.56e-10 m2/s

## CCCCCCn1cc[n+](C)c1.F[B-](F)(F)F [1-hexyl-3-methylimidazolium tetrafluoroborate] + FCF
303.2 K, 95.7 kPa, x2 = 0
  binary diffusion coefficient: 1.29e-10 m2/s
313.2 K, 102 kPa, x2 = 0
  binary diffusion coefficient: 1.8e-10 m2/s
323.2 K, 99.1 kPa, x2 = 0
  binary diffusion coefficient: 2.55e-10 m2/s
333.2 K, 103.5 kPa, x2 = 0
  binary diffusion coefficient: 3.57e-10 m2/s
343.2 K, 99.9 kPa, x2 = 0
  binary diffusion coefficient: 4.76e-10 m2/s

## CCCCCCn1cc[n+](C)c1.O=S(=O)([O-])C(F)(F)F [1-hexyl-3-methylimidazolium trifluoromethanesulfonate] + C=C(F)C(F)(F)F
303.2 K, 104.3 kPa, x2 = 0
  binary diffusion coefficient: 1.46e-10 m2/s
313.2 K, 101.6 kPa, x2 = 0
  binary diffusion coefficient: 2e-10 m2/s
323.2 K, 106.7 kPa, x2 = 0
  binary diffusion coefficient: 2.66e-10 m2/s
333.2 K, 100.8 kPa, x2 = 0
  binary diffusion coefficient: 3.76e-10 m2/s
343.2 K, 109 kPa, x2 = 0
  binary diffusion coefficient: 4.97e-10 m2/s

## CCCCCCn1cc[n+](C)c1.O=S(=O)([O-])C(F)(F)F [1-hexyl-3-methylimidazolium trifluoromethanesulfonate] + CC(F)(F)F
303.2 K, 97.3 kPa, x2 = 0
  binary diffusion coefficient: 1.96e-10 m2/s
313.2 K, 110.5 kPa, x2 = 0
  binary diffusion coefficient: 2.61e-10 m2/s
323.2 K, 105.4 kPa, x2 = 0
  binary diffusion coefficient: 3.48e-10 m2/s
333.2 K, 108.8 kPa, x2 = 0
  binary diffusion coefficient: 4.58e-10 m2/s
343.2 K, 106.3 kPa, x2 = 0
  binary diffusion coefficient: 6.13e-10 m2/s

## CCCCCCn1cc[n+](C)c1.O=S(=O)([O-])C(F)(F)F [1-hexyl-3-methylimidazolium trifluoromethanesulfonate] + CC(F)F
303.2 K, 86.8 kPa, x2 = 0
  binary diffusion coefficient: 1.48e-10 m2/s
313.2 K, 95.7 kPa, x2 = 0
  binary diffusion coefficient: 2.13e-10 m2/s
323.2 K, 98 kPa, x2 = 0
  binary diffusion coefficient: 2.82e-10 m2/s
333.2 K, 101.9 kPa, x2 = 0
  binary diffusion coefficient: 3.79e-10 m2/s
343.2 K, 99.1 kPa, x2 = 0
  binary diffusion coefficient: 4.73e-10 m2/s

From the NIST ThermoML archive (doi:10.1016/j.jct.2017.04.009)
